Test results from patent US20200315233A1, “METHODS AND COMPOSITIONS FOR TREATMENT OF HYPERCALCIURIA AND NEPHROLITHIASIS” (Ana Pharmaceuticals, Inc., priority 2016, published 2020).

What was measured:
hypercalciuric subjects = conditions: cited from earlier work
[1] = test system: patients with nephrolithiasis that were found to have hypercalciuria (>200 mg/24 hr); assay: 24 hour urine calcium before and on vitamin K2 (MK7, MK4) in nephrolithiasis patients with hypercalciuria; format: in vivo, human
From the text: Patients with hypercalciuria who were not on anticoagulants were routinely recommended vitamin K2 supplementation. […] All patients also received standard treatments for any other stone risk factor found in their work-up. As is routine, these patients were asked to repeat the 24 hr urine test, to evaluate response to treatment. […] This compared favorably to the 30-50% expected decrease in calcium when a thiazide diuretic is prescribed. See Martins, M. C., et al., Br J Urol, 1996. 78(2): p. 176-80. Furthermore, the calcium lowering effect of vitamin K2 was independent of the presence and treatment of other stone risk factors.
The average decrease in urine calcium in all eight patients was about 43%. […] (Table 1)

[2] = MK7 100-150 mcg daily or bid for at least 3 weeks

CC1=C(C/C=C(\C)CCC[C@H](C)CCC[C@H](C)CCCC(C)C)C(=O)c2ccccc2C1=O [vitamin K1]
subjects that had a decrease in urinary calcium (hypercalciuric subjects; hypercalciuric subjects): 60%
average reduction in urinary calcium (hypercalciuric subjects; patients with a similar level of pre-treatment hypercalciuria): less than 15%

CC(C)=CCC/C(C)=C/CC/C(C)=C/CC/C(C)=C/CC1=C(C)C(=O)c2ccccc2C1=O [MK4]
% difference of urine calcium, high dose MK4 vs low dose MK7 ([1]; F 74, MK4 15 mg daily vs MK7 120 mcg daily, same background): −40%
High Dose MK4 Urine Calcium ([1]; F 74, same background regimen, changed from MK7 120 mcg daily to MK4 15 mg daily): 191 mg/24 hr
additional decrease in 24 hour urine calcium excretion ([1]; one patient, change from MK7 120 mcg daily to MK4 15 mg daily): about 40%

vitamin K2
decrease of urinary calcium excretion ([1]; cases 1, 2 and 3, vitamin K administered together with other agents): > 50%
decrease in urine calcium levels ([1]; many patients, within a month of therapy): more than 40%

CC(C)=CCC/C(C)=C/CC/C(C)=C/CC/C(C)=C/CC/C(C)=C/CC/C(C)=C/CC/C(C)=C/CC1=C(C)C(=O)c2ccccc2C1=O [MK7]
On Vitamin K Urine Calcium ([1]; Case 1, no prior regimen, before 650 mg/24 hr, on allopurinol 300 mg daily + MK7 100 mcg daily): 262 mg/24 hr
% diff of urine calcium ([1]; Case 1, on allopurinol 300 mg daily + MK7 100 mcg daily vs before vitamin K): −60%
% diff of urine calcium ([1]; Case 2, MK7 50 mcg bid with KCitrate, MgOxide, MgCitrate, Vitamin B6, allopurinol vs before vitamin K): −54%
On Vitamin K Urine Calcium ([1]; Case 2, no prior regimen, before 312 mg/24 hr, on KCitrate 99 mg bid, MgOxide 90 mg bid, MgCitrate 90 mg bid, Vitamin B6 7.5 mg bid, allopurinol 300 mg daily, MK7 50 mcg bid): 145 mg/24 hr
% diff of urine calcium ([1]; Case 3, KCitrate 200 mg daily + MK7 120 mcg bid vs before vitamin K): −51%
On Vitamin K Urine Calcium ([1]; Case 3, no prior regimen, before 321 mg/24 hr, on KCitrate 200 mg daily + MK7 120 mcg bid): 158 mg/24 hr
% diff of urine calcium ([1]; Case 4, KCitrate 1080 mg tid + MK7 100 mcg bid vs before vitamin K): −61%
On Vitamin K Urine Calcium ([1]; Case 4, before KCitrate 1080 mg bid, 320 mg/24 hr, on KCitrate 1080 mg tid + MK7 100 mcg bid): 124 mg/24 hr
On Vitamin K Urine Calcium ([1]; Case 5, before 326 mg/24 hr on allopurinol 300 mg daily, KCitrate, MgOxide, MgCitrate, Vitamin B6, on allopurinol 100 mg daily, same background + MK7 120 mcg bid): 225 mg/24 hr
% diff of urine calcium ([1]; Case 6, MK7 120 mcg bid with HCTZ, KCitrate, MgOxide, MgCitrate, Vitamin B6 vs before vitamin K): +2%
On Vitamin K Urine Calcium ([1]; Case 6, before HCTZ 12.5 mg daily, 332 mg/24 hr, on HCTZ 12.5 mg daily, KCitrate 99 mg bid, MgOxide 90 mg bid, MgCitrate 90 mg bid, Vitamin B6 7.5 mg bid, MK7 120 mcg bid): 340 mg/24 hr
% diff of urine calcium ([1]; Case 7, MK7 150 mcg daily added to stable background regimen vs before vitamin K): −73%
On Vitamin K Urine Calcium ([1]; Case 7, before 314 mg/24 hr on KCitrate, MgOxide, MgCitrate, Vitamin B6, HCTZ 25 mg bid, prednisone, vitD3, allopurinol, same regimen + MK7 150 mcg daily): 84 mg/24 hr
% diff of urine calcium ([1]; Case 8, MK7 120 mcg daily with CaCitrate, KCitrate, MgOxide, MgCitrate, Vitamin B6 vs before vitamin K): −15%
On Vitamin K Urine Calcium ([1]; Case 8, before CaCitrate 630 mg bid, 376 mg/24 hr, on CaCitrate 630 mg tid, KCitrate 99 mg bid, MgOxide 90 mg bid, MgCitrate 90 mg bid, Vitamin B6 7.5 mg bid, MK7 120 mcg daily): 321 mg/24 hr
Low Dose MK7 UCa ([1]; F 74, CaCitrate 630 mg tid, KCitrate 99 mg bid, MgOxide 90 mg bid, MgCitrate 90 mg bid, Vitamin B6 7.5 mg bid, MK7 120 mcg daily): 321 mg/24 hr
average decrease in urine calcium in all eight patients [1, 2]: about 43%
increase in urinary calcium in the one patient that showed no response [1, 2]: 2%
patients that exhibited a decrease in urinary calcium of greater than about 50% [1, 2]: 5 out of 8
% diff of urine calcium, mean ([1]; mean of cases 1-8, on vitamin K (MK7) vs before): −43%
% diff of urine calcium, median ([1]; median of cases 1-8, on vitamin K (MK7) vs before): −52%
average decrease in the excretion of calcium in the urine ([1]; seven of the eight patients, 24 hr urine): 49%
